Measurements as given in patent publication US20040077621A1, “Antioxidants” (Academia Sinica, priority 2002, published 2004).

Columns and labels:
[1] = tested on: human low density lipoprotein (LDL); assay: LDL measurement assay (MDA formation during LDL peroxidation); assay type: biochemical
Method: (§1) The biological activities (e.g., antioxidative activities) of tetrapyrrole compounds described above can be evaluated by a number of assays. For example, an antioxidative activity of a test compound is evaluated by determining the compound's ability to inhibit the formation of conjugated diene during […] linoleic acid peroxidation (Wallin et al (1993) Anal. Biochem. 208: 10-15), or to inhibit the formation of malonyldialdhyde (MDA) during human low density lipoprotein (LDL) peroxidation (Yagi (1982) In lipid peroxides in Biology and Medicine. Yagi, K. (ed), pp. 223-242, Academic Press, New York). In another example, an antioxidative activity of a test compound is evaluated by determining the compound's ability to scavenge the free radicals of ? -diphenyl- ? -picrylhydrazyl (DPPH), or to scavenge superoxide anion, or to chelate Fe2+ cation, or to reduce power. See, e.g., Shimada et aL (1992) J. Agric. Food. Chem. 40: 945-948; Robak & Gryglewski (1988) Biochem. Pharma. 37: 837-841; Dinis et aL (1994) Arch Biochem Biophys 315: 161-169; and Oyaizu (1986) Nippon Shokuhin Kogyo Gakkaishi 35: 771-775.
Under a linoleic acid emulsion assay (see, e.g., Mitsuda et al. Eiyo Shokuryo (1966) 19:210-0.214 and Wallin et al. Anal. Biochem. (1993) 208:10-15), various degrees of inhibition of conjugated diene formation were observed during lipid peroxidation. In addition to Compounds 1-6, chlorophylls a and b were also tested. […] Further, compounds chelated with Mg, e.g., Compounds 1 and 2, had stronger antioxidative property than those without chelation, e.g., Compounds 3 and 4.

DPPH scavenging assay = assay type: physicochemical; conditions: DPPH free radical
Method: as §1
The compounds were also tested in four other assays, i.e., DPPH scavenging assay, superoxide anion scavenging assay, Fe^2+ chelation assay, and reduction assay. See Shimada et al. J. Agric. Food Chem. (1992) 40:945-948; Robak et al. Biochem. Pharnia. (1988) 37:837-841; Dinis et al. Arch. Biochem. Biophys. (1994) 315:161-169; and Oyaizu et al. Nippon Shokuhin Kogyo Gakkaishi (1986) 35:771-775. Compounds 3 and 4 were stronger scavengers than Compounds 5 and 6 in removing DPPH, which in turn were stronger scavengers than chlorophylls a and b and Compounds 1 and 2. […] The I50 values as to chelating Fe^2+ were lower than those as to scavenging DPPH free radical.

[2] = superoxide anion scavenging assay; assay type: physicochemical; conditions: increasing concentrations
Method: as §1
The compounds were also tested in four other assays, i.e., DPPH scavenging assay, superoxide anion scavenging assay, Fe^2+ chelation assay, and reduction assay. See Shimada et al. J. Agric. Food Chem. (1992) 40:945-948; Robak et al. Biochem. Pharnia. […]

Row | IC50 [1] | IC50 (DPPH scavenging assay) | SMILES | superoxide anion scavenging ability as concentration increased [2]
1 | 42 µM | ~535 µM | C=Cc1c(C)c2cc3nc(c4c5[nH]c(cc6nc(cc1[nH]2)C(C=O)=C6CC)c(C)c5C(=O)[C@@H]4C(=O)OC)[C@@H](CCC(=O)O)[C@@H]3C [Compound 2] | –
2 | 20 µM | ~28 µM | C=Cc1c(C)c2cc3nc(c4c5[nH]c(cc6nc(cc1[nH]2)C(C=O)=C6CC)c(C)c5C(=O)[C@@H]4C(=O)OC)[C@@H](CCC(=O)O)[C@@H]3C [Compound 4] | –
3 | 17 µM | ~160 µM | C=Cc1c(C)c2cc3nc(c4c5[nH]c(cc6nc(cc1[nH]2)C(C)=C6CC)c(C)c5C(=O)C4C(=O)OC)C(CCC(=O)OCC=C(C)CCCC(C)CCCC(C)CCCC(C)C)C3C (stereo not shown) [Compound 5] | a gradual increase and a subsequent plateau in their scavenging ability
4 | 54 µM | ~120 µM | C=Cc1c(C)c2cc3nc(c4c5[nH]c(cc6nc(cc1[nH]2)C(C=O)=C6CC)c(C)c5C(=O)C4C(=O)OC)C(CCC(=O)OCC=C(C)CCCC(C)CCCC(C)CCCC(C)C)C3C (stereo not shown) [Compound 6] | a gradual increase and a subsequent plateau in their scavenging ability
5 | ~16 µM | – | Cc1c(C)c2c(c(C)c1O)CCC(C)(C(=O)O)O2 (stereo not shown) [Trolox, reference compound] | –
6 | 26 µM | ~200 µM | C=Cc1c(C)c2cc3nc(c4c5[nH]c(cc6nc(cc1[nH]2)C(C=O)=C6CC)c(C)c5C(=O)[C@@H]4C(=O)OC)[C@@H](CCC(=O)OC/C=C(\C)CCC[C@H](C)CCC[C@H](C)CCCC(C)C)[C@@H]3C [chlorophyll b, reference compound] | –

Row | SMILES | IC50 [1] | IC50 (DPPH scavenging assay) | superoxide anion scavenging ability as concentration increased [2]
7 | C=Cc1c(C)c2cc3nc(c4c5[nH]c(cc6nc(cc1[nH]2)C(C)=C6CC)c(C)c5C(=O)[C@@H]4C(=O)OC)[C@@H](CCC(=O)O)[C@@H]3C [Compound 1] | 10 µM | > 700 µM | –
8 | C=Cc1c(C)c2cc3nc(c4c5[nH]c(cc6nc(cc1[nH]2)C(C)=C6CC)c(C)c5C(=O)[C@@H]4C(=O)OC)[C@@H](CCC(=O)O)[C@@H]3C [Compound 3] | 21 µM | ~40 µM | –
9 | C=Cc1c(C)c2cc3nc(c4c5[nH]c(cc6nc(cc1[nH]2)C(C)=C6CC)c(C)c5C(=O)[C@@H]4C(=O)OC)[C@@H](CCC(=O)OC/C=C(\C)CCC[C@H](C)CCC[C@H](C)CCCC(C)C)[C@@H]3C [chlorophyll a, reference compound] | 5 µM | ~265 µM | –
